Reference: patent US20060183119A1, “Method for determining predisposition to a physiological reaction in a patient” (UNIVERSITE LAVAL, priority 2002, published 2006)
Read-outs that look alike come from different tables or passages of the source.

Experiments:
human UGT1A9*2 = target: T1, human UGT1A9*2 (Homo sapiens, UniProt O60656, C3Y); assay: Glucuronidation by microsomes of HEK-293 cells stably expressing UGT1A9*2; settings: for Vmax / Km: SN-38 glucuronidation
T1 sequence (O60656 26-530): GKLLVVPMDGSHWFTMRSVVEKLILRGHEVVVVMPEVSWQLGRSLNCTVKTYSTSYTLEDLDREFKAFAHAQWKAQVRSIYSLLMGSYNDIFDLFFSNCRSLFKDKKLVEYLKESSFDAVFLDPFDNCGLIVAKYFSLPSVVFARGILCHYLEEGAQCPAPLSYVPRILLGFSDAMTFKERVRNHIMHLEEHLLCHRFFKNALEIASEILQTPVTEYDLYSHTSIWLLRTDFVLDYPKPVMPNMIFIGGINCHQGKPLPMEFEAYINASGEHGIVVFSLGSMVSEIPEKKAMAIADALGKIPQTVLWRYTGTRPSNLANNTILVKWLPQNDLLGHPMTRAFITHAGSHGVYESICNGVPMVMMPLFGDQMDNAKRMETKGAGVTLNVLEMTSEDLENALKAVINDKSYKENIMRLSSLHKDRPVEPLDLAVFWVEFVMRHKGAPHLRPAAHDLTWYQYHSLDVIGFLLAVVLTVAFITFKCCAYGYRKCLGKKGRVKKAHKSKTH
Experimental: Microsomal fractions from HEK-293 cells stably expressing human UGT1A9*1, UGT1A9*2 and UGT1A9*3 were used in enzymatic assays. Reactions (100 μl volume) contained 50 mM Tris-HCl, pH 7.3, 10 mM MgCl2, 100 μg/mL phosphatidylcholine, 1 mM UDP-glucuronic acid, 40 to 60 μg of membrane protein. […] Human liver microsome were incubated in the same condition for control. Reaction was stopped by the addition of 200 μL MeOH+1% HCl 2N, followed by centrifugation at 14000 rpm for 10 minutes. Supernatant was filtered through a 0.22 μm filter and 100 μL of water was added. For SN-38 and SN-38-glucuronide detection, 10 μL samples were injected on a liquid chromatographic system coupled to a fluorescence detector. Time-course experiments were realized to determine the linearity of the glucuronidation reaction.
A liquid chromatographic method was developed to quantify SN-38 glucuronidation of UGT cell line-derived microsomes and human liver microsomes. Samples were analyzed using high performance liquid chromatography (Alliance 2695, Waters, Milford, Mass.). […] At a constant flow rate (0.7 ml/min), a linear gradient from 20 to 65% B was run over 3 min, held 0.8 min and a second gradient until 95% of B was run over 2 min and then re-equilibrated to 20% B over 2 min. The effluent from the HPLC system (Alliance 2695) was connected directly to a fluorescence detector (Waters, Milford, Mass.) using an excitation wavelength of […] and an emission of 460 nm. […] Determination of the glucuronidation rates obtained with other substrates was performed as currently known in the art.
Microsomal fractions from HEK293 (40 to 60 μg) were added to a reaction mixture (100 μL) containing 50 mM Tris-HCl, pH 7.3, 10 mM MgCl2, 100 μg/mL phosphatidylcholine and 2 mM UDP-glucuronic acid. […] Commercially available human liver microsomes (Human Cell Culture Center Inc., Laurel, Md.) were incubated in the same conditions for all experiments. Time-course experiments were performed to determine the linearity of the glucuronidation reaction. For the determination of Vmax and Km. HEK293 cells stably expressing UGT1A9 enzymes were incubated in the presence of various concentrations of SN-38 ranging from 0.1 to 200 μM and incubated for 30 min as described above whereas UGT1A7 membranes preparations were incubated for 3 hours. […] Reactions with SN-38 were stopped by the addition of 200 μL MeOH+1% HCl 2N, followed by centrifugation at 14000×g for 10 minutes. The supernatants were filtered through a 0.22 μm membrane and 100 μL of water was added to the filtrate. For the detection of SN-38 and its glucuronide (SN-38G), 10 μL samples were injected in a liquid chromatographic system (HPLC) coupled to fluorescence detector as described below.
A HPLC method was developed to quantify the rates of SN-38 glucuronidation from the various microsomal fractions under study. The HPLC system used was an Alliance 2695 (Waters, Milford, Mass.) equipped with a 50×3.2 mm Colombus C18 column (Phenomenex, Torrance, Calif.). […] Then a second gradient ranging from 65% to 95% solvent B was generated during the following 2 min. Finally, the column was re-equilibrated to 20% solvent B for 2 min. The column was connected to a fluorescence detector model 474 (Waters, Milford, Mass.) and the molecules were excited at a wavelength of 370 nm and an emission of 425 nm.

UGT1A7*8 = target: T2, UGT1A7*8 (Homo sapiens, UniProt Q9HAW7, E139D/N129K/R131K/W208R); assay: SN-38 glucuronidation by microsomes of HEK293 cells expressing UGT1A7*8; assay type: in vitro ADME; parameters: key to Function (SN-38G formation versus *1 allele): High: no significant difference in activity compared to *1 allele.; Low: significantly lower SN-38G formation versus *1 allele
T2 construct: expressed in transfected cells
T2 sequence (Q9HAW7 26-530 N129K/R131K/E139D/W208R): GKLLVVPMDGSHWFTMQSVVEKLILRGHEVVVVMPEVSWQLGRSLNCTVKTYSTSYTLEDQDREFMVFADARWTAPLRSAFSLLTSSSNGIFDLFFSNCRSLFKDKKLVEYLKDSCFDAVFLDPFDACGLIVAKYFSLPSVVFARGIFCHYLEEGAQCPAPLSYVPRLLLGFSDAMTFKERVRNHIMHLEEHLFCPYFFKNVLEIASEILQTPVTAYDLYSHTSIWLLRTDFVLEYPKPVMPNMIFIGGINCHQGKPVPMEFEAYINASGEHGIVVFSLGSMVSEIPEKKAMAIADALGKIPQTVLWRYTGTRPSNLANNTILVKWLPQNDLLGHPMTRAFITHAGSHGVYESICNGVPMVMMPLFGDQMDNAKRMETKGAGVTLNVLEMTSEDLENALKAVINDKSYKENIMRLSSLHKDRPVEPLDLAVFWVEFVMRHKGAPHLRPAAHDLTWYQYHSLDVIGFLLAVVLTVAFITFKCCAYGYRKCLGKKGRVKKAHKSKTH
Experimental: Western blot analyses of UGT1A7 and UGT1A9 variants expressed in HEK293 cells were performed on microsomal proteins (10 μg) separated on a 10% SDS-polyacrylamide gel. After transferring the proteins, the membranes were probed with an anti-UGT1A RC-71 polyclonal antibody and with an anti-calnexin antibody. The relative levels of UGT1A9 (a) and UGT1A7 proteins (b) were determined by semi-quantitative densitometric analysis of the Enhanced chemiluminescence (ECL) image. The in vitro SN-38 activity was assessed using microsomal fractions prepared from HEK293 cells expressing the *1 and variant UGT1A9 (c) and UGT1A7 (d) alleles and incubated with 5 μM of SN-38 as described in Materials and Methods.
For the determination of Vmax and Km.

SMILES: CCc1c2c(nc3ccc(O)cc13)-c1cc3c(c(=O)n1C2)COC(=O)[C@]3(O)CC [SN-38, 7-ethyl-10-hydroxycamptothecin]
- effect on conjugation rate of SN-38 (in words) (human UGT1A9*2; 5 μM of SN-38, versus wild type): no significant effect
- Vmax (human UGT1A9*2; 0.1 to 200 μM, mean±SD): 324.38 ± 95.09 pmol/min/mg protein
- Km (human UGT1A9*2; Table 5): 5.15 ± 1.81 µM
- Vmax (human UGT1A9*2; Table 5): 324.68 ± 95.09
- Km (human UGT1A9*2; read-out: Apparent Km, 0.1 to 200 μM, mean±SD, Lineweaver-Burk): 5.15 ± 1.81 µM
- increased activity (SN-38 conjugation) (human UGT1A9*2; tyrosine at codon 3, versus UGT1A9*1): 16.7%
- SN-38 glucuronidating activity of the allele (in words) (UGT1A7*8): low
- Function (SN-38G formation versus *1 allele) (UGT1A7*8; in vitro experiments): Low
- lower rates of SN-38G formation compared to UGT1A7*1 (UGT1A7*8; range given for *5, *7 and *8 together): 38-76%
